Results on 5 compounds are retold here after ChEMBL document CHEMBL3407334, “Synthesis of novel inhibitors of α-glucosidase based on the benzothiazole skeleton containing benzohydrazide moiety and their molecular docking studies” (Eur J Med Chem, 2015).

This test has as its target Maltase-glucoamylase (Homo sapiens, UniProt O43451). Put plainly: Inhibition of alpha-glucosidase (unknown origin) using pNPG substrate incubated for 15 mins by microplate reader based method.

Each structure is given as a SMILES string.

Maltase-glucoamylase, sequence (O43451 whole entry): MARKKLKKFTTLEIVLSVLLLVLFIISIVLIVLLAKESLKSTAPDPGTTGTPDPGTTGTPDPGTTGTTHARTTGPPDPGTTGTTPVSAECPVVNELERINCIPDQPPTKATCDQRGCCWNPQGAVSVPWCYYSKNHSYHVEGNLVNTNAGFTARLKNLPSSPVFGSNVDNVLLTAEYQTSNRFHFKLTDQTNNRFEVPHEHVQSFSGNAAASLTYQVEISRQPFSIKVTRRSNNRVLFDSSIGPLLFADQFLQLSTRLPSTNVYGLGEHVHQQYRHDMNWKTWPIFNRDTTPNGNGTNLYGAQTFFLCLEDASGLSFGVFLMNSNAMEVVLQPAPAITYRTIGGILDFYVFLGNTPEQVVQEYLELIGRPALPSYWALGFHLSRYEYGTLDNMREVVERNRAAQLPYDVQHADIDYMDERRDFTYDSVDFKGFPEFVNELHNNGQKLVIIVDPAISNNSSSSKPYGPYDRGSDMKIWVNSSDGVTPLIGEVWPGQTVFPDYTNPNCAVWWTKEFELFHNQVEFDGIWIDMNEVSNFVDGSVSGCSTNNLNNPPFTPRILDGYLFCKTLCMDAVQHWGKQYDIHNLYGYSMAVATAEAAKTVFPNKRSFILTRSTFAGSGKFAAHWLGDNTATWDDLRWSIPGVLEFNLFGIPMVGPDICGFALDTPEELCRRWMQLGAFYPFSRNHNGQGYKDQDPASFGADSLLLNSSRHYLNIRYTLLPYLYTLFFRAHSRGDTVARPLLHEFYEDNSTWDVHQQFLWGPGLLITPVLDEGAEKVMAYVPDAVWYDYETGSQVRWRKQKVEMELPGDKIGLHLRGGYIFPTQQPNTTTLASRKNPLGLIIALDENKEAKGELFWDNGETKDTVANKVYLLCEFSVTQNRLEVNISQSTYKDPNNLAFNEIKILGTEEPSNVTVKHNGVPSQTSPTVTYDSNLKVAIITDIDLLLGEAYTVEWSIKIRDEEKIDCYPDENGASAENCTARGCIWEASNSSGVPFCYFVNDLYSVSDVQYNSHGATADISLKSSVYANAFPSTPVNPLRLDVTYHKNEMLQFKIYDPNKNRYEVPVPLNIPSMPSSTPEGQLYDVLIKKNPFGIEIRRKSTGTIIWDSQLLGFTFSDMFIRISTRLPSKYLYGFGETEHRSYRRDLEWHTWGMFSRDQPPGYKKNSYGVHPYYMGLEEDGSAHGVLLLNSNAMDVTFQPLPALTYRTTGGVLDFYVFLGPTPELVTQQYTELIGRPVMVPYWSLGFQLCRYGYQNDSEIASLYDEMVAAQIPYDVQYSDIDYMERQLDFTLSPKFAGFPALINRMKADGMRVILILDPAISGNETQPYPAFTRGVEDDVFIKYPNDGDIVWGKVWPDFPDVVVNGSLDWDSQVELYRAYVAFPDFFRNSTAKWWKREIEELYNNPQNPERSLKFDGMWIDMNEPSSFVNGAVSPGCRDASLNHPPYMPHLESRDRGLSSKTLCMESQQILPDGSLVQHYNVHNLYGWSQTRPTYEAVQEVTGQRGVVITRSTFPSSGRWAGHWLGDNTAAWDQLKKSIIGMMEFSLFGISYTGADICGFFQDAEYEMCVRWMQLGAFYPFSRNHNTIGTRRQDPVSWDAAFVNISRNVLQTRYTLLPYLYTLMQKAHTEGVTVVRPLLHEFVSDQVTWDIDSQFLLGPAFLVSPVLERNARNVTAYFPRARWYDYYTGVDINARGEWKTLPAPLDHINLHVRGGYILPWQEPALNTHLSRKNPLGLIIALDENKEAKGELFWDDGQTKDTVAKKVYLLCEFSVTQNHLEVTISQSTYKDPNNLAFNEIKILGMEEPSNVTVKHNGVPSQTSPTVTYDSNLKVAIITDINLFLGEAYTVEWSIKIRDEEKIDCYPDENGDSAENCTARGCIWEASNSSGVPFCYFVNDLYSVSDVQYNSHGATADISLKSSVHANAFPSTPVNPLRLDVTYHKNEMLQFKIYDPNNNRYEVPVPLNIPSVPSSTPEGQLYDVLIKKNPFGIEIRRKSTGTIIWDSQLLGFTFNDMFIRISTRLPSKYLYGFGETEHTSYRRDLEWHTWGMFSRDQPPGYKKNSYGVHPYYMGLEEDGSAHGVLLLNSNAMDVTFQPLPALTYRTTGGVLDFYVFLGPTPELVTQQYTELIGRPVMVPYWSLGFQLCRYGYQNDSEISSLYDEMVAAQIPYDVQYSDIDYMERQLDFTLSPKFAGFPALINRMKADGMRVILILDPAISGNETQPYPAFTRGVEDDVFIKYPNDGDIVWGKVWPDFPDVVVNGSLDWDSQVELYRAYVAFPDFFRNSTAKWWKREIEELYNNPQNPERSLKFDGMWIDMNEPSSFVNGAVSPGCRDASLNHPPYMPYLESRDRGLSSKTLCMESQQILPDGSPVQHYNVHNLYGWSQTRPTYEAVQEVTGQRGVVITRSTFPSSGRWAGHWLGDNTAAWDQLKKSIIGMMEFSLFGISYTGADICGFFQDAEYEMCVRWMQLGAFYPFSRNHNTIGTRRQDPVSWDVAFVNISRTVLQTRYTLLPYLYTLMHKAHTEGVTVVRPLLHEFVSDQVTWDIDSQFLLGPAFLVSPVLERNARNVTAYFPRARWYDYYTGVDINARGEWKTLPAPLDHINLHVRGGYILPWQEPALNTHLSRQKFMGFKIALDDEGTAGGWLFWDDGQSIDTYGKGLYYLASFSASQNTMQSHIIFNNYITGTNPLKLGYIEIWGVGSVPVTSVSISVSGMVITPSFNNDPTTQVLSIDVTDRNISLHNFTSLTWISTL

With `O=C(N/N=C/c1cccnc1)c1ccc(-c2nc3ccccc3s2)cc1`, the IC50 result is reported as “Not Active”. For the compound `COC(=O)c1ccc(/C=N/NC(=O)c2ccc(-c3nc4ccccc4s3)cc2)cc1`, the IC50 result was “Not Active”.

As to `COc1ccc(/C=N/NC(=O)c2ccc(-c3nc4ccccc4s3)cc2)cc1OC`, the IC50 result is given as “Not Active”.

`COc1ccc(/C=N/NC(=O)c2ccc(-c3nc4ccccc4s3)cc2)cc1O`: the IC50 entry is given as “Not Active”. Next, `O=C(N/N=C/c1ccncc1)c1ccc(-c2nc3ccccc3s2)cc1`: “Not Active”.
